Test results reported in ChEMBL document CHEMBL1201862, “PubChem BioAssay data set” (2004).
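Values below derive from 48-hour exposures of cells grown in 96-well plates, with endpoints linearly interpolated between the two concentrations bracketing the appropriate inhibition level. Here, GI50 denotes the concentration required for 50% inhibition of growth.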 The source made the active and inactive calls. Rule as the data show it: active = GI50 up to about 1.1 µM and inactive = higher.

Tests used:
Test in all cases: NCI anticancer screen, dose series, 48 h
UACC-62 = system: UACC-62
SF-268 = system: SF-268
Hs-578T = system: Hs-578T
SK-MEL-5 = system: SK-MEL-5
HL-60 = system: HL-60
SNB-75 = system: SNB-75
NCI-H226 = system: NCI-H226
HCC 2998 = system: HCC 2998
IGROV-1 = system: IGROV-1
COLO 205 = system: COLO 205
TK-10 = system: TK-10
RPMI-8226 = system: RPMI-8226
EKVX = system: EKVX
RXF 393 = system: RXF 393
OVCAR-8 = system: OVCAR-8
LOX IMVI = system: LOX IMVI
PC-3 = system: PC-3
CAKI-1 = system: CAKI-1
UO-31 = system: UO-31

Row | SMILES | GI50 (UACC-62) | GI50 (SF-268) | GI50 (Hs-578T) | GI50 (SK-MEL-5) | GI50 (HL-60) | GI50 (SNB-75) | GI50 (NCI-H226) | GI50 (HCC 2998) | GI50 (IGROV-1) | GI50 (COLO 205) | GI50 (TK-10) | GI50 (RPMI-8226) | GI50 (EKVX) | GI50 (RXF 393) | GI50 (OVCAR-8) | GI50 (LOX IMVI) | GI50 (PC-3) | GI50 (CAKI-1) | GI50 (UO-31)
1 | O=C(O)c1ccc(N2C=[N+]3C(=Nc4ccccc43)C2)cc1 | > 100 µM (inactive) | > 100 µM (inactive) | > 100 µM (inactive) | > 100 µM (inactive) | > 100 µM (inactive) | 62.7 µM (inactive) | > 100 µM (inactive) | > 100 µM (inactive) | > 100 µM (inactive) | > 100 µM (inactive) | > 100 µM (inactive) | > 100 µM (inactive) | > 100 µM (inactive) | > 100 µM (inactive) | > 100 µM (inactive) | > 100 µM (inactive) | > 100 µM (inactive) | > 100 µM (inactive) | > 100 µM (inactive)
2 | COCN1C(=O)[C@@H]2CCCN2C(=O)c2ccc(Cl)cc21 | > 100 µM (inactive) | > 100 µM (inactive) | > 100 µM (inactive) |  | > 100 µM (inactive) | > 100 µM (inactive) | > 100 µM (inactive) | > 100 µM (inactive) | > 100 µM (inactive) | > 100 µM (inactive) | > 100 µM (inactive) | > 100 µM (inactive) | > 100 µM (inactive) | > 100 µM (inactive) | > 100 µM (inactive) | > 100 µM (inactive) | > 100 µM (inactive) | > 100 µM (inactive) | > 100 µM (inactive)
3 | O=[N+]([O-])/C(C(Cl)=C(Cl)Cl)=C(/Sc1ccccc1)N1CCOCC1 | 3.62 µM (inactive) | 4.46 µM (inactive) | 15.6 µM (inactive) | 3 µM (inactive) | 1.99 µM (inactive) |  | 11.4 µM (inactive) | 15.3 µM (inactive) | 3.13 µM (inactive) | 3.88 µM (inactive) | 6.68 µM (inactive) | 2.62 µM (inactive) | 9.75 µM (inactive) | 1.92 µM (inactive) | 1.89 µM (inactive) | 1.53 µM (inactive) | 6.01 µM (inactive) | 6.27 µM (inactive) | 4.67 µM (inactive)
4 | OC(CC(CC(O)(C(F)(F)Cl)C(F)(F)Cl)=NNc1ccccc1)(C(F)(F)Cl)C(F)(F)Cl | 1.66 µM (inactive) | 2.55 µM (inactive) | 2.45 µM (inactive) | 1.71 µM (inactive) | > 10 µM (inactive) | 2.71 µM (inactive) | 2.99 µM (inactive) | 4.23 µM (inactive) | 5.62 µM (inactive) | 1.91 µM (inactive) | 3.88 µM (inactive) | > 10 µM (inactive) | 3.27 µM (inactive) | 2.8 µM (inactive) | 2.9 µM (inactive) | 2.94 µM (inactive) | 1.35 µM (inactive) | 2.9 µM (inactive) | 
5 | CN(C)c1ccc(/N=N\c2cccc3ccoc23)cc1 | > 100 µM (inactive) | > 100 µM (inactive) | > 100 µM (inactive) | 43.4 µM (inactive) | 23.8 µM (inactive) | > 84.3 µM (inactive) | > 74.6 µM (inactive) | 60.8 µM (inactive) | > 70.3 µM (inactive) | > 82.8 µM (inactive) | 56.5 µM (inactive) | 52.2 µM (inactive) | 26.9 µM (inactive) | > 80.9 µM (inactive) | > 78 µM (inactive) | > 100 µM (inactive) | 59.6 µM (inactive) | > 62.4 µM (inactive) | 6.46 µM (inactive)
6 | Cc1ccc(S(=O)(=O)NNCNC(=O)c2ccccc2)cc1 | 71.6 µM (inactive) | > 100 µM (inactive) | > 100 µM (inactive) | > 100 µM (inactive) | 16.4 µM (inactive) | > 100 µM (inactive) | > 100 µM (inactive) | > 100 µM (inactive) | > 100 µM (inactive) | > 100 µM (inactive) | > 100 µM (inactive) | 76 µM (inactive) | > 100 µM (inactive) | > 100 µM (inactive) | > 100 µM (inactive) | 68.7 µM (inactive) | > 100 µM (inactive) | > 100 µM (inactive) | 82.8 µM (inactive)
7 | CCOC(=O)/C=C(\C(=O)OCC)n1cc(C)c(=O)n(Cc2cnnn2COCCOC(C)=O)c1=O | 15.4 µM (inactive) | 15.5 µM (inactive) | 14.3 µM (inactive) | 19.7 µM (inactive) | 3.15 µM (inactive) | 18.4 µM (inactive) | 9.59 µM (inactive) | 16.6 µM (inactive) | 8.45 µM (inactive) | 2.07 µM (inactive) | 4.91 µM (inactive) | 6.24 µM (inactive) | 11.9 µM (inactive) | 3.28 µM (inactive) | 7.03 µM (inactive) | 5.97 µM (inactive) | 16 µM (inactive) | 3.13 µM (inactive) | 14.4 µM (inactive)
8 | CC(C)(C)C1=NN=C2c3ccccc3C(=O)C21 (centres undefined) | 27.4 µM (inactive) | 58.9 µM (inactive) | 20.7 µM (inactive) | 23 µM (inactive) | 34.3 µM (inactive) | 79.6 µM (inactive) | 41.7 µM (inactive) | 4.6 µM (inactive) | 56.1 µM (inactive) | 37.8 µM (inactive) | 53 µM (inactive) | 32.1 µM (inactive) | 27.4 µM (inactive) | 81.3 µM (inactive) | 43.6 µM (inactive) | 41.1 µM (inactive) | 35.6 µM (inactive) | 26.4 µM (inactive) | 4.78 µM (inactive)
9 | O=c1cc(NNc2cccc(F)c2)[nH]c(=O)[nH]1 | 35 µM (inactive) | > 100 µM (inactive) | 83 µM (inactive) | > 100 µM (inactive) | 19.1 µM (inactive) | > 100 µM (inactive) | > 100 µM (inactive) | 95.9 µM (inactive) | 19.8 µM (inactive) | 34.6 µM (inactive) | 14.2 µM (inactive) | 16.7 µM (inactive) |  | 20.5 µM (inactive) |  | 18 µM (inactive) | > 100 µM (inactive) | 16.4 µM (inactive) | 29.4 µM (inactive)
10 | Cc1csc(NNC(=O)Nc2ccccc2)n1 | > 100 µM (inactive) | > 100 µM (inactive) | > 100 µM (inactive) | > 100 µM (inactive) | > 100 µM (inactive) | > 100 µM (inactive) | > 100 µM (inactive) | > 100 µM (inactive) | > 100 µM (inactive) | > 100 µM (inactive) |  | > 100 µM (inactive) | > 100 µM (inactive) | > 100 µM (inactive) | > 100 µM (inactive) | > 100 µM (inactive) | > 100 µM (inactive) | > 100 µM (inactive) | 45.7 µM (inactive)
11 | Brc1c(C#CCC2CCCCC2)ccc(C#CCC2CCCCC2)c1Br | > 100 µM (inactive) | > 100 µM (inactive) | > 100 µM (inactive) | > 100 µM (inactive) | > 100 µM (inactive) | > 100 µM (inactive) | > 100 µM (inactive) | > 100 µM (inactive) | > 100 µM (inactive) | > 100 µM (inactive) | > 100 µM (inactive) | > 100 µM (inactive) | > 100 µM (inactive) | > 100 µM (inactive) | > 100 µM (inactive) | > 100 µM (inactive) | > 100 µM (inactive) | > 100 µM (inactive) | 
12 | Cn1c(COC(=O)NC2CCCCC2)c(COC(=O)NC2CCCCC2)c2ccc3cc(C=O)ccc3c21 | > 100 µM (inactive) | 37.5 µM (inactive) | 35.3 µM (inactive) | > 100 µM (inactive) | 38.1 µM (inactive) | 18.6 µM (inactive) | > 100 µM (inactive) | > 100 µM (inactive) | > 100 µM (inactive) | > 100 µM (inactive) | > 100 µM (inactive) |  | > 100 µM (inactive) | 51.1 µM (inactive) | > 100 µM (inactive) | > 100 µM (inactive) | > 100 µM (inactive) | > 100 µM (inactive) | > 100 µM (inactive)
13 | O=c1cc(-c2ccccc2)[nH]c2ccc(N3CCCCC3)cc12 | < 0.01 µM (active) | 0.228 µM (active) | < 0.0152 µM (active) | < 0.0153 µM (active) | < 0.0126 µM (active) |  | 0.0193 µM (active) | < 0.0224 µM (active) | 0.0506 µM (active) | 0.017 µM (active) | 0.998 µM (active) | 0.0333 µM (active) | > 100 µM (inactive) | < 0.0191 µM (active) | 0.0462 µM (active) | 0.0465 µM (active) | 0.0297 µM (active) | < 0.0221 µM (active) | > 10 µM (inactive)
14 | Cc1ccc2nc(NC(=O)C(=O)C3C(=O)NC(=S)NC3=O)sc2c1 | > 100 µM (inactive) | > 100 µM (inactive) | > 100 µM (inactive) | > 100 µM (inactive) | > 100 µM (inactive) | > 100 µM (inactive) | > 100 µM (inactive) | > 100 µM (inactive) | 49.4 µM (inactive) |  | > 100 µM (inactive) | > 100 µM (inactive) | > 100 µM (inactive) | 43.6 µM (inactive) | > 100 µM (inactive) | > 100 µM (inactive) | > 100 µM (inactive) | > 100 µM (inactive) | 77.3 µM (inactive)
15 | CC12CC(C#N)(C#N)C(C#N)(CO1)C(=N)O2 (centres undefined) | 24.9 µM (inactive) | > 100 µM (inactive) | 27.7 µM (inactive) | > 100 µM (inactive) | 44.2 µM (inactive) | > 100 µM (inactive) | > 100 µM (inactive) | > 100 µM (inactive) | > 100 µM (inactive) | 37.8 µM (inactive) | > 100 µM (inactive) |  | > 100 µM (inactive) | 59.7 µM (inactive) | > 100 µM (inactive) | 49.3 µM (inactive) | > 100 µM (inactive) | 31.8 µM (inactive) | > 100 µM (inactive)
